Test results from ChEMBL document CHEMBL3734659, “Identification of tris-(phenylalkyl)amines as new selective h5-HT2Breceptor antagonists” (Medchemcomm, 2015).
Activity calls are given as the source filed them. The calls are words filed in the database; no cut-off is given here.

Assays:
[1] = target: Beta-1 adrenergic receptor (Homo sapiens, UniProt P08588); experiment: Displacement of [3H]CGP12177 human recombinant beta 1 adrenergic recptor expressed in CHO Flp-In cells after 90 mins by scintillation counting method; assay type: cell-based
[2] = target: Alpha-1A adrenergic receptor (Homo sapiens, UniProt P35348); experiment: Displacement of [3H]Prazosin from human recombinant alpha 1A receptor after 90 mins by scintillation counting method
[3] = target: Alpha-1D adrenergic receptor (Homo sapiens, UniProt P25100); experiment: Displacement of [3H]Prazosin from human recombinant alpha 1D receptor after 90 mins by scintillation counting method
Chain of Alpha-1D adrenergic receptor (P25100 whole entry): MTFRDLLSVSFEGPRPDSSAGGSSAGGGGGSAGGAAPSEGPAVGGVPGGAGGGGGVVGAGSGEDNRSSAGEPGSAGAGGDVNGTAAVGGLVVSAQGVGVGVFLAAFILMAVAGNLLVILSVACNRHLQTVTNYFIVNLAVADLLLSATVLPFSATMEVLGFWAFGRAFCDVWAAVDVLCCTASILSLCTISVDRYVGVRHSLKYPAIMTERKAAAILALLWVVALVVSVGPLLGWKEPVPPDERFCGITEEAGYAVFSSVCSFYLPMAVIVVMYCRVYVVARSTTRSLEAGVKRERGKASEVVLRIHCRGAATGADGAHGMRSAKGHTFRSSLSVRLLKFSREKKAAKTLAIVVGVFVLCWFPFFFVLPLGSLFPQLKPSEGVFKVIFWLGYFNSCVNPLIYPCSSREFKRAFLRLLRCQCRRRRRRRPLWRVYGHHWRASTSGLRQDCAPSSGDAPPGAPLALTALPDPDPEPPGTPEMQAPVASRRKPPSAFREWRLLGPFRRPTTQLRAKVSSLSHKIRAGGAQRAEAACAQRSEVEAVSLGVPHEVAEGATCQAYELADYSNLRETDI

[4] = target: T1, 5-hydroxytryptamine receptor 2C (Homo sapiens, UniProt P28335); experiment: Displacement of [3H]mesulergine from human recombinant 5-HT2C receptor expressed in Flp-IN HEK cell membrane after 90 mins by scintillation counting method; assay type: cell membranes, HEK293; conditions: read-out: Ki
T1 sequence (P28335 whole entry): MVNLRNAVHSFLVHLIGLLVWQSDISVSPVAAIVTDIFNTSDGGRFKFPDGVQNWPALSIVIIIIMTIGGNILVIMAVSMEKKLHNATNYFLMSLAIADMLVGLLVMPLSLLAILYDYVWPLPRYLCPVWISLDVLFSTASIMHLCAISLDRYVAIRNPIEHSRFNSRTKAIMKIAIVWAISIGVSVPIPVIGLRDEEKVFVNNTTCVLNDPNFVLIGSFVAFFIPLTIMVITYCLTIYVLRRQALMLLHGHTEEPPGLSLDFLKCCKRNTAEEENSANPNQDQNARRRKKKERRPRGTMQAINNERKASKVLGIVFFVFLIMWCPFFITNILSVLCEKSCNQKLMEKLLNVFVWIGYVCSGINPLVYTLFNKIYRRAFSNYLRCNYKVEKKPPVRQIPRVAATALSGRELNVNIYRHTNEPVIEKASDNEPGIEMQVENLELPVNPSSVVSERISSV

[5] = target: T2, 5-hydroxytryptamine receptor 2C (Homo sapiens) (UniProt P28335); experiment: Displacement of [3H]mesulergine from human recombinant 5-HT2C receptor expressed in Flp-IN HEK cell membrane at 10 uM after 90 mins by scintillation counting method; assay type: cell membranes; conditions: HEK293
T2 sequence (whole entry): T1 sequence (P28335 whole entry)

HEK293 = experiment: Selectivity ratio of Ki for human recombinant 5-HT2A receptor expressed in HEKT cell membrane to Ki for human recombinant 5-HT2B receptor stably expressed in HEK cells; assay type: cell-based
[6] = target: 5-hydroxytryptamine receptor 1D (Homo sapiens, UniProt P28221); experiment: Displacement of [3H]5-CT from human recombinant 5-HT1D receptor expressed in HEKT cell membrane after 90 mins by scintillation counting method; assay type: cell membranes
[7] = target: 5-hydroxytryptamine receptor 7 (Homo sapiens, UniProt P34969); experiment: Displacement of [3H]LSD from human recombinant 5-HT7A receptor stably expressed in HEKT cell membrane after 90 mins by scintillation counting method; assay type: cell membranes
D(1A) dopamine receptor = D(1A) dopamine receptor (Homo sapiens, UniProt P21728); experiment: Displacement of [3H]SCH23390 from human recombinant dopamine D1 receptor expressed in HEKT cell membrane after 90 mins by scintillation counting method; assay type: cell membranes
Chain of D(1A) dopamine receptor (P21728 whole entry): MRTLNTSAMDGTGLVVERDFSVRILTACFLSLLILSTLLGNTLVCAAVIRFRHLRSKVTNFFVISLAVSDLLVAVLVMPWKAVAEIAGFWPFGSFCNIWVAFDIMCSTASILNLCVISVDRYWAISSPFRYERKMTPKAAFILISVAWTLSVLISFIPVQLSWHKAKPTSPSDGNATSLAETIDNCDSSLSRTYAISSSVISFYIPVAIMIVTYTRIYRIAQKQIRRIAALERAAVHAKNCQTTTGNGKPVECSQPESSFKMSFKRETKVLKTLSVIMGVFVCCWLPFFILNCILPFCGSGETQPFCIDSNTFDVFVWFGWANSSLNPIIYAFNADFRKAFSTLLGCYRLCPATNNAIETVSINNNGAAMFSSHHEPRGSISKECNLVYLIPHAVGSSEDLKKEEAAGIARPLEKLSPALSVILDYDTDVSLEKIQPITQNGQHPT

D(2) dopamine receptor = D(2) dopamine receptor (Homo sapiens, UniProt P14416); experiment: Displacement of [3H]N-methylspiperone from human recombinant dopamine D2 receptor expressed in stable fibroblast after 90 mins by scintillation counting method
D(4) dopamine receptor = D(4) dopamine receptor (Homo sapiens, UniProt P21917); experiment: Displacement of [3H]N-methylspiperone from human recombinant dopamine D4 receptor after 90 mins by scintillation counting method
[8] = target: Kappa-type opioid receptor (Homo sapiens, UniProt P41145); experiment: Displacement of [3H]U69593 from human kappa-opioid receptor stably expressed in HEK cell membrane after 90 mins by scintillation counting method; assay type: cell membranes, HEK293
Chain of Kappa-type opioid receptor (P41145 whole entry): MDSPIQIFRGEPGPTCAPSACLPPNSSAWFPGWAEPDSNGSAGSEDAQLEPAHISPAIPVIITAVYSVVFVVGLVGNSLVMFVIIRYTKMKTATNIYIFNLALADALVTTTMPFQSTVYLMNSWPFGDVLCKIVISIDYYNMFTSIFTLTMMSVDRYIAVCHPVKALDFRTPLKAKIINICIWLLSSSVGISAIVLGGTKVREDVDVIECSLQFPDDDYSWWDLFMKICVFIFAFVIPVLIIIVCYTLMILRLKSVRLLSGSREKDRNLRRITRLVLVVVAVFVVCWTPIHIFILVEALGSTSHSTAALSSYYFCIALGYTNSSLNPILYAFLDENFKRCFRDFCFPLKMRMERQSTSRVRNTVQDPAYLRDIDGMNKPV

[9] = target: Sodium-dependent noradrenaline transporter (Homo sapiens, UniProt P23975); experiment: Displacement of [3H]Nisoxetine from human norepinephrine transporter stably expressed in HEK293 cells after 30 mins by neurotransmitter transporter uptake assay; assay type: cell-based
[10] = target: Sodium-dependent serotonin transporter (Homo sapiens, UniProt P31645); experiment: Displacement of [3H]Citalopram from human serotonin transporter transporter stably expressed in HEK293 cells after 30 mins by neurotransmitter transporter uptake assay; assay type: cell-based
Chain of Sodium-dependent serotonin transporter (P31645 whole entry): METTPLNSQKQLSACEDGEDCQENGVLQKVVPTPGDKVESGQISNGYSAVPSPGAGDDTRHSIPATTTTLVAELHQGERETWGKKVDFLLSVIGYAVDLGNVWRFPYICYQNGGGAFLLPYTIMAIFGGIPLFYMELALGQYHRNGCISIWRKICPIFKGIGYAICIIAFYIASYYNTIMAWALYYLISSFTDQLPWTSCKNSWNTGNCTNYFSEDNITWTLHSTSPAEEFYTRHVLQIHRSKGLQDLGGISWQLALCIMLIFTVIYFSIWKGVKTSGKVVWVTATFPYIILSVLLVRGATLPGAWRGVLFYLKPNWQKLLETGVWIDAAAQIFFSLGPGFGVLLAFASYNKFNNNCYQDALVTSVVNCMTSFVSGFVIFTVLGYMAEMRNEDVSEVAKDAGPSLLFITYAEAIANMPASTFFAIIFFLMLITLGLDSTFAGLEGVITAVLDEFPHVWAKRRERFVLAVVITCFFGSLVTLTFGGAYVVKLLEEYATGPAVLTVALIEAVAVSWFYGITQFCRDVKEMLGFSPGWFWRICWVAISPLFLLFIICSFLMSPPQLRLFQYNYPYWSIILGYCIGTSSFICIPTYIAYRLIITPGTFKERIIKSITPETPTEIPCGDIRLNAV

[11] = Displacement of [3H]DTG from sigma 2 receptor stable expressed in rat PC12 cells after 90 mins by scintillation counting method; assay type: cell-based; conditions: pc-12
[12] = target: 5-hydroxytryptamine receptor 1B (Homo sapiens) (UniProt P28222); experiment: Displacement of [3H]5-CT from human recombinant 5-HT1B receptor stably expressed in HEK cell membrane after 90 mins by scintillation counting method; assay type: cell membranes; conditions: HEK293
Chain of 5-hydroxytryptamine receptor 1B (Homo sapiens) (P28222 whole entry): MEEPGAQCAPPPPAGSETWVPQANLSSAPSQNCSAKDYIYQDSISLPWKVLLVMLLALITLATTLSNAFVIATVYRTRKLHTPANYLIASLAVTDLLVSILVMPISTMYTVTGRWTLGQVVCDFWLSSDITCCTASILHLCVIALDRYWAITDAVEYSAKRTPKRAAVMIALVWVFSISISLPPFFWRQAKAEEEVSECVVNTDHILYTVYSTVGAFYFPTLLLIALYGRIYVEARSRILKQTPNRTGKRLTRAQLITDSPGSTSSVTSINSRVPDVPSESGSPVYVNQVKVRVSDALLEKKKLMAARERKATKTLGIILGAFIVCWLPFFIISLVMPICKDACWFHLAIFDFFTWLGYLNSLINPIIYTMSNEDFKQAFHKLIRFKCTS

[13] = target: 5-hydroxytryptamine receptor 1E (Homo sapiens) (UniProt P28566); experiment: Displacement of [3H]5-CT from human recombinant 5-HT1E receptor stably expressed in HEK cell membrane after 90 mins by scintillation counting method; assay type: cell membranes; conditions: HEK293
Chain of 5-hydroxytryptamine receptor 1E (Homo sapiens) (P28566 whole entry): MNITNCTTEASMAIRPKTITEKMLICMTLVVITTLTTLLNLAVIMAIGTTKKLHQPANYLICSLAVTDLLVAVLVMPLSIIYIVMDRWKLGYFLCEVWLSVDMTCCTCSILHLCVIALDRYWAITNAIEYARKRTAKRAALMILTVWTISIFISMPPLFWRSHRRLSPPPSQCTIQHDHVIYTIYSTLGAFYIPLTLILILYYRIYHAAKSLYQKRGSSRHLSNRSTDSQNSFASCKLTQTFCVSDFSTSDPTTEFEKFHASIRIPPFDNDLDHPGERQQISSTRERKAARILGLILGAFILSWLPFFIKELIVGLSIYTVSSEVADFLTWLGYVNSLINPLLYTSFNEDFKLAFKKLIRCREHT

[14] = target: 5-hydroxytryptamine receptor 3A (Homo sapiens) (UniProt P46098); experiment: Displacement of [3H]GR65630 from human recombinant 5-HT3 receptor expressed in HEKT cell membrane after 90 mins by scintillation counting method; assay type: cell membranes
[15] = target: Beta-2 adrenergic receptor (Homo sapiens) (UniProt P07550); experiment: Displacement of [3H]CGP12177 from human recombinant beta 2 receptor expressed in HEK Flp-In cells after 90 mins by scintillation counting method; assay type: cell-based; conditions: HEK293
Chain of Beta-2 adrenergic receptor (Homo sapiens) (P07550 whole entry, looked up): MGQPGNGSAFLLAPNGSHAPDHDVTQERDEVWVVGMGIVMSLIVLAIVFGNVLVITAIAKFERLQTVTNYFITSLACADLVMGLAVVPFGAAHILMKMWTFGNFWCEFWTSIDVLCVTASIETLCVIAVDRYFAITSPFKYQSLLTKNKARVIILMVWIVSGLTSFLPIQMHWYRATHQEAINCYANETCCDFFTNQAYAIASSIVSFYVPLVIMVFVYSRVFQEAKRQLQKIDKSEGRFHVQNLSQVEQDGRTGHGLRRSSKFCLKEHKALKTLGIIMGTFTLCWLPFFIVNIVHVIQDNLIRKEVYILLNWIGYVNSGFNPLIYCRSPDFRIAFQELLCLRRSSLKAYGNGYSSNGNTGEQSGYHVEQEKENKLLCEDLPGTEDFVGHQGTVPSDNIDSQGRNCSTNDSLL

[16] = target: D(1B) dopamine receptor (Homo sapiens) (UniProt P21918); experiment: Displacement of [3H]SCH23390 from human recombinant dopamine D5 receptor expressed in HEKT cell membrane after 90 mins by scintillation counting method; assay type: cell membranes
[17] = target: Histamine H3 receptor (Homo sapiens) (UniProt Q9Y5N1); experiment: Displacement of [3H]alpha-methylhistamine from human H3 Histamine receptors expressed in HEK Flp-In cell after 90 mins by scintillation counting method; assay type: cell-based; conditions: HEK293
[18] = target: Muscarinic acetylcholine receptor M1 (Homo sapiens) (UniProt P11229); experiment: Displacement of [3H]QNB from human Muscarinic acetylcholine M1 receptor stably expressed in CHO cell after 90 mins by scintillation counting method; assay type: cell-based
Chain of Muscarinic acetylcholine receptor M1 (Homo sapiens) (P11229 whole entry): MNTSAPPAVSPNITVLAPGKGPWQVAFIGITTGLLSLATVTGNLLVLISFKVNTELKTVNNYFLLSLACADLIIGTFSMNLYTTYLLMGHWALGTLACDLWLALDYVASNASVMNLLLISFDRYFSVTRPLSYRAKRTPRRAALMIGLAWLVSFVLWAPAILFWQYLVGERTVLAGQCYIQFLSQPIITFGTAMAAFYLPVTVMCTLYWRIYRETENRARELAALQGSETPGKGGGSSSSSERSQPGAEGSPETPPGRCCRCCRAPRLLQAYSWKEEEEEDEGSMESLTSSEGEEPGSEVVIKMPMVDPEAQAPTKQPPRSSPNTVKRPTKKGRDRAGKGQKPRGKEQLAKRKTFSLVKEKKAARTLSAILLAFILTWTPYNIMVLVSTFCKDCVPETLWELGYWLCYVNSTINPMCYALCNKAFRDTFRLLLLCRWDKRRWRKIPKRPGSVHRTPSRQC

[19] = target: Muscarinic acetylcholine receptor M3 (Homo sapiens) (UniProt P20309); experiment: Displacement of [3H]NMS from human Muscarinic acetylcholine M3 receptor stably expressed in CHO cell after 90 mins by scintillation counting method; assay type: cell-based
[20] = target: Muscarinic acetylcholine receptor M5 (Homo sapiens) (UniProt P08912); experiment: Displacement of [3H]NMS from human Muscarinic acetylcholine M5 receptor stably expressed in CHO cell after 90 mins by scintillation counting method; assay type: cell-based
[21] = target: 5-hydroxytryptamine receptor 2A (Homo sapiens, UniProt P28223); experiment: Antagonist activity at human recombinant 5-HT2A receptor expressed in Flp-In HEK cells in the presence of agonist preincubated for 10 mins by FLIPR based calcium mobilization assay; assay type: functional, cell-based, HEK293
Chain of 5-hydroxytryptamine receptor 2A (P28223 whole entry): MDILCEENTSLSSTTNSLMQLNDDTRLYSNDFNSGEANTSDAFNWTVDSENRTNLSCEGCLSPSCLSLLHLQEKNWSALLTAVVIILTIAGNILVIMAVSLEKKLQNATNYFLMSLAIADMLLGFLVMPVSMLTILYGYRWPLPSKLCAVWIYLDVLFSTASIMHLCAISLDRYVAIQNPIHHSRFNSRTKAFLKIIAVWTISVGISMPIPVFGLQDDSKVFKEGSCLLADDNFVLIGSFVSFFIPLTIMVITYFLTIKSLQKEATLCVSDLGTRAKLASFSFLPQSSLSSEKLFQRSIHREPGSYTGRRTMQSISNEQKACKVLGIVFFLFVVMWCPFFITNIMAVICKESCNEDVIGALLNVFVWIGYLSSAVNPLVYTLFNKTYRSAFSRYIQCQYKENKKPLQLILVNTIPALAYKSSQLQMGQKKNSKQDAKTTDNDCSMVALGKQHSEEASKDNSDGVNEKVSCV

[22] = target: T3, 5-hydroxytryptamine receptor 2B (Homo sapiens, UniProt P41595); experiment: […] antagonist activity at human recombinant 5-HT2B receptor stably expressed in HEK cell membrane by schild plot method; set-up: species or system HEK293; conditions: read-out: pA2 (converted)
T3 sequence (P41595 whole entry): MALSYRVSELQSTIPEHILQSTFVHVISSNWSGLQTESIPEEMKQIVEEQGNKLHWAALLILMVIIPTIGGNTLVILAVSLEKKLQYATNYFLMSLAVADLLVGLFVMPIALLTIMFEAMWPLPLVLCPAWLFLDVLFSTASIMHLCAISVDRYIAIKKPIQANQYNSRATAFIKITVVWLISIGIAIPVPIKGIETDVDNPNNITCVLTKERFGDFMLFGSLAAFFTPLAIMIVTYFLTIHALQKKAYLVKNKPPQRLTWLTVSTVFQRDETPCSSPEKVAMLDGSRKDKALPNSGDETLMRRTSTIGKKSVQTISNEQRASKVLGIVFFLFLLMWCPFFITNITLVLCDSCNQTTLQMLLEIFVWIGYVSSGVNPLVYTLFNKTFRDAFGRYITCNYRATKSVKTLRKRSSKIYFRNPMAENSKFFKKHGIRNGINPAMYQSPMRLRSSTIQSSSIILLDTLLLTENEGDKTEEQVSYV

[23] = target: T3, 5-hydroxytryptamine receptor 2B; experiment: Agonist activity at human recombinant 5-HT2B receptor expressed in Flp-In HEK cells preincubated for 10 mins by FLIPR based calcium mobilization assay; assay type: functional, cell-based; conditions: HEK293
[24] = target: 5-hydroxytryptamine receptor 6 (Homo sapiens) (UniProt P50406); experiment: Displacement of [3H]LSD from human recombinant 5-HT6 receptor stably expressed in HEK cell membrane by scintillation counting method; assay type: cell membranes; conditions: HEK293

Ki [1]: 1890 nM | Ki [2]: 333 nM | Ki [3]: 467 nM | Ki [4]: 399 nM | inhibition [5]: > 50% | Ki [6]: 451 nM | Ki [7]: 700 nM | Ki (D(1A) dopamine receptor): 1680 nM | Ki (D(2) dopamine receptor): 1730 nM | Ki (D(4) dopamine receptor): 853 nM | Ki [8]: 363 nM | Ki [9]: 11 nM | Ki [10]: 1000 nM | Activity [12]: inactive | Activity [13]: inactive | Activity [14]: inactive | Activity [15]: inactive | Activity [16]: inactive | Activity [17]: inactive | Activity [18]: inactive | Activity [19]: inactive | Activity [20]: inactive | IC50 [21]: 5010 nM | Kb [22]: 550 nM | Activity [23]: inactive | Activity [24]: inactive
Compound: COc1ccc(CCN(CCCc2ccccc2)CCc2ccc3c(c2)OCO3)cc1OC
Ratio Ki (HEK293): 6 | Ki [11]: 242 nM
